Test results reported in patent publication US7195901B1 (priority 2004, dated 2007).

Test system: yeast endogenous DGAT
Type: biochemical, S. cerevisiae
Conditions: 1 mM diricinolein; yeast grown under repression (2% glucose) condition

Substance: 1,2-diricinolein
- absolute incorporation of 14C-oleate into RRO: less than 20 pmol/mg/min
